Test results as given in patent US20230287415A1, “COMBINED THERAPY AGAINST CANCER” (FUNDACIÓ INSTITUT HOSPITAL DEL MAR D'INVESTIGACIONS …, priority 2020, published 2023).

Tests used:
[1] = test system: LCoR; experiment: Doxorubicin treatment of breast cancer cells, LCoR mRNA by qRT-PCR; format: cell-based, human; settings: 360 nM during 48 hours, MDA-MB-231 cells
Description: Low dose treatment of breast cancer cells (360 nM during 48 hours) induced an increase of 2.3 fold change mRNA expression of LCoR in MDA-MB-231 cells.
Cell lines, culture conditions and treatments. All cell lines used in the study, including mammary epithelial cell lines (human HMLE), breast cancer cell lines (human MDA-MB-231 and mouse 4TO7; PyMT8119; AT3 cell lines) and other cell lines (HEK293T, H29 and HeLa), were cultured using the standard conditions according the American Type Culture Collection (ATCC) instructions. Doxorrubicin treatment was performed at 360 nM during 48 hours in MDA-MB-231 cells.
qRT-PCR analyses. Total mRNA was isolated using the RNAeasy isolation Kit (QIAGEN). mRNA reverse transcription was done using Applied Biosystems reactants and real-time quantitative PCR performed using the Power SYBR green PCR master mix (Applied Biosystems). All analyses were performed using an ABI 7900HT PCR machine. mRNA expression was normalized by the expression of GAPDH in each sample.

[2] = test system: PyMT8119-OVA cells; experiment: Cytotoxic T-cell lymphocyte (CTL) co-culture assay; format: cell-based, mouse; settings: OT-I CD8+ T-cells co-cultured with LCoR-OE tumor cells, in combination with anti-PD-L1
Description: These paradoxical effects of LCoR, increased immunogenicity vs. increased PD-L1, poses LCoR expressing cells as largely responsive cells to anti-PD-L1 immune-checkpoint blockade therapy.
The transgenic OT-I mouse model strain with specific TCR for the OVA-derived peptide SIINFEKL MHC-I presented, were used to isolate splenocytes and CD8+T-cells that specifically recognize the SIINFEKL peptide (OVA 257-264). 9-week OT-I mice were sacrificed to obtain the spleen. Using mechanical dissociation of the spleen over a sterile 40 μm mesh screen. Total splenocytes were plated in six well plates and non-attached T cells were separated from adherent dendritic cells (DC) after 24 hours. CD8+T-cells were isolated by FACS.
Cytotoxic T-cell lymphocyte (CTL) co-culture assays. CD8+ T-cells were isolated from the spleen of OT-I mice and activated in culture with OVA peptide during 48 hours. Activated CD8+ T-cells were cocultured in 24-well plates with PyMT8119-OVA cells in different ratios of effector T-cells:tumor cells (E:T). After 5 days of coculture, T-cells and debris were removed, washed with media and stained with Sulforhodamine B (SRB) for measuring cytotoxicity (Vichai and Kirtikara 2006). […]

In the case of `COc1cccc2c1C(=O)c1c(O)c3c(c(O)c1C2=O)C[C@@](O)(C(=O)CO)C[C@@H]3O[C@H]1C[C@H](N)[C@H](O)[C@H](C)O1` [Doxorubicin], the “increase of mRNA expression of LCoR” value [1] is reported as 2.3 fold change.
For Atezolizumab, the “sensitivity to immune detection and killing” value [2] was “enhanced sensitivity to immune detection and killing”.
